Measured values as given in US8841233B2, “Herbicidal compositions comprising 4-amino-3-chloro-5-fluoro-6-(4-chloro-2-fluoro-3-methoxyphenyl) pyridine-2-carboxylic acid or a derivative thereof and 4-hydroxyphenyl-pyruvate dioxygenase (HPPD) inhibitors” (Dow Agrosciences LLC, priority 2012, dated 2014).

How the values were obtained:
SCPJU = assay: Post-emergence foliar-applied weed control, greenhouse (Example I); assay type: in vivo, Schoenoplectus juncoides (Roxb.) Palla
Text: Evaluation of Post-emergence Foliar-Applied Herbicidal Mixtures for Weed Control in Direct Seeded Rice
Seeds or nutlets of the desired test plant species were planted in a soil matrix prepared by mixing a loam or sandy loam soil (e.g., 28.6 percent silt, 18.8 percent clay, and 52.6 percent sand, with a pH of about 5.8 and an organic matter content of about 1.8 percent) and calcareous grit in an 80 to 20 ratio. The soil matrix was contained in plastic pots with a volume of 1 quart and a surface area of 83.6 square centimeters (cm^2). When required to ensure good germination and healthy plants, a fungicide treatment and/or other chemical or physical treatment was applied. The plants were grown for 8-22 days in a greenhouse with an approximate 14 h photoperiod which was maintained at about 29° C. during the day and 26° C. during the night. Nutrients (Peters Excel® 15-5-15 5-Ca 2-Mg and iron chelate) were applied in the irrigation solution as needed and water was added on a regular basis. Supplemental lighting was provided with overhead metal halide 1000-Watt lamps as necessary. The plants were employed for testing when they reached the first through fourth true leaf stage.
(§1) Treatments consisted of the acid or esters of 4-amino-3-chloro-5-fluoro-6-(4-chloro-2-fluoro-3-methoxy-phenyl)pyridine-2-carboxylic acid (Compound A), each formulated as an SC (suspension concentrate), and various herbicidal components alone and in combination. Forms of Compound A were applied on an acid equivalent basis.
(§2) Other herbicidal components were applied on an active ingredient basis and included 4-hydroxyphenyl pyruvate dioxygenase (HPPD)-inhibiting herbicides mesotrione formulated as Callisto®, sulcotrione formulated as Mikado®, pyrazolynate formulated as Sunbird® 10% GR, and benzobicyclon formulated as Benzobicyclon 3.5%.
Treatment requirements were calculated based upon the rates being tested, the concentration of active ingredient or acid equivalent in the formulation, and a 12 mL application volume at a rate of 187 L/ha.
For treatments comprised of formulated compounds, measured amounts of compounds were placed individually in 25 mL glass vials and diluted in a volume of 1.25% (v/v) Agri-Dex® crop oil concentrated to obtain 12× stock solutions. […] Application solutions were prepared by adding an appropriate amount of each stock solution (e.g., 1 mL) and diluted to the appropriate final concentrations with the addition of 10 mL of an aqueous mixture of 1.25% (v/v) crop oil concentrate so that the final spray solutions contained 1.25+/−0.05% (v/v) crop oil concentrate.
For treatments comprised of formulated and technical compounds, weighed amounts of the technical materials were placed individually in 25 mL glass vials and dissolved in a volume of 97:3 v/v acetone/DMSO to obtain 12× stock solutions, and measured amounts of the formulated compounds were placed individually in 25 mL glass vials and diluted in a volume of 1.5% (v/v) crop oil concentrate or water to obtain 12× stock solutions. […] Application solutions were prepared by adding an appropriate amount of each stock solution (e.g., 1 mL) and diluted to the appropriate final concentrations with the addition of an appropriate amount of an aqueous mixture of 1.5% (v/v) crop oil concentrate so that the final spray solutions contained 1.25% (v/v) crop oil concentrate. As required, additional water and/or 97:3 v/v acetone/DMSO was added to individual application solutions so that the final acetone and DMSO concentrations of the application solutions being compared were 8.1% and 0.25%, respectively.
All stock solutions and applications solutions were visually inspected for compound compatibility prior to application. Spray solutions were applied to the plant material with an overhead Mandel track sprayer equipped with a 8002E nozzles calibrated to deliver 187 L/ha over an application area of 0.503 m^2 at a spray height of 18 to 20 inches (46 to 50 cm) above average plant canopy height. […]

LEFCH = assay: In-water applied weed control, transplanted paddy rice, greenhouse (Example II); assay type: in vivo, Leptochloa chinensis (L.) Nees
Experimental: Evaluation of in-Water Applied Herbicidal Mixtures for Weed Control in Transplanted Paddy Rice
Weed seeds or nutlets of the desired test plant species were planted in puddled soil (mud) prepared by mixing a shredded, non-sterilized mineral soil (50.5 percent silt, 25.5 percent clay, and 24 percent sand, with a pH of about 7.6 and an organic matter content of about 2.9 percent) and water at a 1:1 volumetric ratio. The prepared mud was dispensed in 365 mL aliquots into 16-ounce (oz.) non-perforated plastic pots with a surface area of 86.59 square centimeters (cm^2) leaving a headspace of 3 centimeters (cm) in each pot. Mud was allowed to dry overnight prior to planting or transplanting. Rice seeds were planted in Sun Gro MetroMix® 306 planting mixture, which typically has a pH of 6.0 to 6.8 and an organic matter content of about 30 percent, in plastic plug trays. Seedlings at the second or third leaf stage of growth were transplanted into 840 mL of mud contained in 32-oz. non-perforated plastic pots with a surface area of 86.59 cm^2 4 days prior to herbicide application. The paddy was created by filling the headspace of the pots with 2.5 to 3 cm of water. When required to ensure good germination and healthy plants, a fungicide treatment and/or other chemical or physical treatment was applied. The plants were grown for 4-22 days in a greenhouse with an approximate 14 h photoperiod which was maintained at about 29′C during the day and 26° C. during the night. Nutrients were added as Osmocote® (19:6:12, N:P:K+ minor nutrients) at 2 g per 16-oz. pot and 4 g per 32-oz. pot. Water was added on a regular basis to maintain the paddy flood, and supplemental lighting was provided with overhead metal halide 1000-Watt lamps as necessary. The plants were employed for testing when they reached the first through fourth true leaf stage.
as §1, with “(compound A)” for “(Compound A),”, “concentrate)” for “concentrate),”, “compound” for “Compound”
as §2, with “3.5% or technical material.” for “3.5%.”
Treatment requirements for each compound or herbicidal component were calculated based upon the rates being tested, the concentration of active ingredient or acid equivalent in the formulation, an application volume of 2 mL per component per pot, and an application area of 86.59 cm^2 per pot.
For formulated compounds, a measured amount was placed in an individual 100 or 200 mL glass vial and was dissolved in a volume of 1.25% (v/v) Agri-Dex® crop oil concentrate to obtain application solutions.
For technical grade compounds, a weighed amount was placed in an individual 100 to 200 mL glass vial and was dissolved in a volume of acetone to obtain concentrated stock solutions. […] The concentrated stock solutions obtained were diluted with an equivalent volume of an aqueous mixture containing 2.5% (v/v) crop oil concentrate so that the final application solutions contained 1.25% (v/v) crop oil concentrate.
Applications were made by injecting with a pipetter appropriate amounts of the application solutions, individually and sequentially, into the aqueous layer of the paddy. Control plants were treated in the same manner with the solvent blank. Applications were made so that all treated plant material received the same concentrations of acetone and crop oil concentrate.
The treated plants and control plants were placed in a greenhouse as described above and water was added as needed to maintain a paddy flood. […]

SMILES | Visual Weed Control (%) - 20 DAA SCPJU Obs (SCPJU; 4.38 gae/ha) [%] | Visual Weed Control (%) - 20 DAA SCPJU Obs (SCPJU; 8.75 gae/ha) [%] | Visual Weed Control (%) - 21 DAA LEFCH Obs (LEFCH; 4.38 gae/ha) [%] | Visual Weed Control (%) - 21 DAA LEFCH Obs (LEFCH; 8.75 gae/ha) [%] | Visual Weed Control (%) - 22 DAA SCPJU Obs (SCPJU; 5.3 gae/ha) [%] | Visual Weed Control (%) - 22 DAA SCPJU Obs (SCPJU; 10.6 gae/ha) [%] | Visual Weed Control (%) - 21 DAA LEFCH Obs (LEFCH; 17.5 gae/ha) [%]
COc1c(Cl)ccc(-c2nc(C(=O)OCc3ccccc3)c(Cl)c(N)c2F)c1F [Compound A Benzyl Ester, benzyl ester of 4-amino-3-chloro-5-fluoro-6-(4-chloro-2-fluoro-3-methoxy-phenyl)pyridine-2-carboxylic acid] | 30 | 60 | 15 | 15 | – | – | –
COc1c(Cl)ccc(-c2nc(C(=O)O)c(Cl)c(N)c2F)c1F [Compound A Acid, 4-amino-3-chloro-6-(4-chloro-2-fluoro-3-methoxyphenyl)-5-fluoropyridine-2-carboxylic acid] | – | – | – | 0 | 60 | 75 | 0
